# Reference: patent US7514257B2, “Zinc finger transcription factor differentiation proteins” (ToolGen, Inc., priority 2001, dated 2009)
# Legend:
# human insulin gene [1] = assay: Insulin gene expression in stably transfected 293 cells (DNA microarray); type: cell-based; settings: stably transfected human 293 cells
# Excerpt: We stably transfected nucleic acids encoding chimeric zinc finger proteins in human 293 cell lines, and analyzed transformed cells using DNA microarray experiments to characterize genes regulated by each chimeric zinc finger protein (see FIGS. 4, 5, and 9). We have identified a chimeric zinc finger protein (08_D04-p65) that increases the expression of human insulin gene more than 60 fold.
# Nucleic acids encoding zinc finger proteins were stably introduced into FlpTRex-293 cell lines (Invitrogen) essentially as described in the manufacturer's protocols. Briefly, the HindIII-XhoI fragment from the pLFD-p65 or pLFD-Kid vectors was subcloned into pcDNA5/FRT/TO (Invitrogen Calif.). This fragment includes a sequence encoding the zinc finger proteins. Resulting plasmids were cotransfected into FlpTRex-293 cells with pOG44 (Invitrogen). Stable integrants that express ZFP-TFs upon doxycycline induction were obtained.
# DNA microarrays containing 7458 human EST clones were obtained from Genomictree (Korea). FlpTRex-293 cells stably expressing ZFP-TFs were grown with (+Dox) or without Dox) 1 μg/ml Doxycycline for 48 hours. Total RNA was prepared from each sample. RNA from the −Dox sample was used as a reference (Cy3), and +Dox as the experimental sample (Cy5). […] Spots with sum of median less than 500 were colored red and not analyzed.
# human insulin gene [2] = assay: Insulin gene expression in transiently transfected HeLa cells; type: cell-based
# Excerpt: To test whether 08_D04-p65 can induce insulin gene expression in different human cell lines, we transiently transfected a nucleic acid encoding 08_D04-p65 into HeLa cells. Expression of the nucleic acid in HeLa cells caused a 80 fold increase in expression of the insulin gene.
# Nucleic acids encoding certain zinc finger proteins were also expressed in HeLa cells. pLFD-p65 containing 08-D04 ZFP was transiently transfected into HeLa cells using LIPOFECTAMINE™ 2000 (Invitrogen).
substance,measurement,setting,value
08_D04-p65: ZFP RSHR-RDHT-VSSR with p65 activation domain (SEQ ID NO:6),increase in expression of human insulin gene,human insulin gene [1],more than 60 fold
same,increase in expression of the insulin gene,human insulin gene [2],80 fold
